The NIST ThermoML archive (doi:10.1016/j.jct.2007.11.002)

Assay: xn = mol fraction of the nth substance listed
Conditions: 101 kPa, Liquid; for viscosity: Capillary tube (Ostwald / Ubbelohde) method

CN1CCOCC1 [N-methylmorpholine] + c1ccccc1
Conditions	mass density, 298.15 K [kg/m3]	mass density, 303.15 K [kg/m3]	mass density, 313.15 K [kg/m3]	mass density, 323.15 K [kg/m3]	viscosity, 298.15 K [mPa·s]	viscosity, 303.15 K [mPa·s]	viscosity, 313.15 K [mPa·s]	viscosity, 323.15 K [mPa·s]
x2 = 0.0554	912.69	907.91	898.27	879.87	0.847	0.836	0.811	0.789
x2 = 0.1167	911.11	906.07	896.38	878.41	0.814	0.805	0.781	0.761
x2 = 0.1798	909.39	904.33	894.47	876.92	0.783	0.772	0.746	0.731
x2 = 0.2477	907.18	902.35	892.51	875.44	0.753	0.741	0.713	0.695
x2 = 0.2855	906.2	901.15	891.26	874.46	0.737	0.725	0.695	0.676
x2 = 0.3422	904.33	899.41	889.48	873.1	0.715	0.7	0.668	0.647
x2 = 0.3762	903.31	898.32	888.33	872.2	0.704	0.688	0.654	0.632
x2 = 0.4244	901.72	896.71	886.67	870.91	0.687	0.671	0.636	0.613
x2 = 0.479	899.69	894.8	884.72	869.39	0.672	0.656	0.617	0.592
x2 = 0.5466	897	892.15	881.97	867.18	0.655	0.637	0.598	0.568
x2 = 0.5911	895.2	890.3	880.1	865.69	0.646	0.628	0.587	0.556
x2 = 0.6201	893.8	889.05	878.76	864.58	0.641	0.622	0.579	0.548
x2 = 0.6822	891	886.21	875.84	862.22	0.631	0.61	0.565	0.531
x2 = 0.7094	889.5	884.9	874.61	861.22	0.628	0.606	0.561	0.525
x2 = 0.7655	886.8	882.04	871.56	858.69	0.625	0.6	0.551	0.509
x2 = 0.7901	885.2	880.63	870.14	857.49	0.621	0.597	0.548	0.503
x2 = 0.8439	882.2	877.64	867.09	854.96	0.618	0.589	0.535	0.486
x2 = 0.8933	879.6	874.81	864.21	852.55	0.613	0.583	0.521	0.468
x2 = 0.9278	877.5	872.82	862.18	850.86	0.61	0.578	0.512	0.458
x2 = 0.9641	875.4	870.63	859.95	848.96	0.606	0.571	0.503	0.448
